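Five concentrations, 48 hours, 96-well plates. The concentration for 50% growth inhibition is given as GI50.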 Calls of active or inactive are those of the source. No stated cut-off is given here; in the data, active = GI50 up to about 1.1 µM and inactive = higher.
How the values were obtained:
Assay in all cases: NCI tumour cell line growth inhibition, 48 h
SR = system: SR
SNB-75 = system: SNB-75
K562 = system: K562
EKVX = system: EKVX
786-0 = system: 786-0
TK-10 = system: TK-10
SF-295 = system: SF-295
HT-29 = system: HT-29
SK-MEL-5 = system: SK-MEL-5
MDA-N = system: MDA-N
HCT-116 = system: HCT-116
OVCAR-4 = system: OVCAR-4
SK-MEL-28 = system: SK-MEL-28
A498 = system: A498
HL-60 = system: HL-60
MOLT-4 = system: MOLT-4
NCI-H460 = system: NCI-H460
SF-539 = system: SF-539
HOP-92 = system: HOP-92
RPMI-8226 = system: RPMI-8226
NCI/ADR-RES = system: NCI/ADR-RES
CAKI-1 = system: CAKI-1
UO-31 = system: UO-31
OVCAR-3 = system: OVCAR-3
MDA-MB-231 = system: MDA-MB-231
NCI-H226 = system: NCI-H226
IGROV-1 = system: IGROV-1
A549 = system: A549
SN12C = system: SN12C
HCT-15 = system: HCT-15
ACHN = system: ACHN
UACC-62 = system: UACC-62
SNB-19 = system: SNB-19
SW-620 = system: SW-620
OVCAR-8 = system: OVCAR-8
PC-3 = system: PC-3
SK-MEL-2 = system: SK-MEL-2
DU-145 = system: DU-145
SK-OV-3 = system: SK-OV-3
CCRF-CEM = system: CCRF-CEM
BT-549 = system: BT-549
HCC 2998 = system: HCC 2998
SF-268 = system: SF-268
RXF 393 = system: RXF 393
UACC-257 = system: UACC-257
OVCAR-5 = system: OVCAR-5
NCI-H522 = system: NCI-H522
KM12 = system: KM12
MCF7 = system: MCF7
M14 = system: M14
NCI-H23 = system: NCI-H23
T47D = system: T47D
MDA-MB-435 = system: MDA-MB-435
Hs-578T = system: Hs-578T
HOP-62 = system: HOP-62
LOX IMVI = system: LOX IMVI
Malme-3M = system: Malme-3M
COLO 205 = system: COLO 205
U-251 = system: U-251

## CCOc1cc(NC(C)=O)ccc1C(=O)NN1C(=O)C(Cl)C1c1ccco1 (stereo not given)
SR
  GI50: 13.9 µM (inactive)
SNB-75
  GI50: 13.8 µM (inactive)
K562
  GI50: 19.3 µM (inactive)
EKVX
  GI50: 17.9 µM (inactive)
786-0
  GI50: 16.1 µM (inactive)
TK-10
  GI50: 17.4 µM (inactive)
SF-295
  GI50: 16 µM (inactive)
HT-29
  GI50: 19.1 µM (inactive)
SK-MEL-5
  GI50: 13.3 µM (inactive)
MDA-N
  GI50: 14.4 µM (inactive)
HCT-116
  GI50: 20.7 µM (inactive)
OVCAR-4
  GI50: 14.9 µM (inactive)
SK-MEL-28
  GI50: 22.6 µM (inactive)
A498
  GI50: 16.4 µM (inactive)
HL-60
  GI50: 18.4 µM (inactive)
MOLT-4
  GI50: 7.01 µM (inactive)
NCI-H460
  GI50: 17.3 µM (inactive)
SF-539
  GI50: 14.9 µM (inactive)
HOP-92
  GI50: 19.1 µM (inactive)
RPMI-8226
  GI50: 18.3 µM (inactive)
NCI/ADR-RES
  GI50: 33.7 µM (inactive)
CAKI-1
  GI50: 17.1 µM (inactive)
UO-31
  GI50: 2.86 µM (inactive)
OVCAR-3
  GI50: 16.9 µM (inactive)
MDA-MB-231
  GI50: 16.6 µM (inactive)
NCI-H226
  GI50: 18.5 µM (inactive)
IGROV-1
  GI50: 13.1 µM (inactive)
A549
  GI50: 18.7 µM (inactive)
SN12C
  GI50: 14.5 µM (inactive)
HCT-15
  GI50: 19.1 µM
ACHN
  GI50: 15.7 µM (inactive)
UACC-62
  GI50: 12.6 µM (inactive)
SNB-19
  GI50: 17 µM (inactive)
SW-620
  GI50: 32.3 µM (inactive)
OVCAR-8
  GI50: 43.5 µM (inactive)
PC-3
  GI50: 17.9 µM (inactive)
SK-MEL-2
  GI50: 18.6 µM (inactive)
DU-145
  GI50: 17.3 µM (inactive)
SK-OV-3
  GI50: 18.3 µM (inactive)
CCRF-CEM
  GI50: 4.58 µM (inactive)
BT-549
  GI50: 13.5 µM (inactive)
HCC 2998
  GI50: 16 µM (inactive)
SF-268
  GI50: 16.1 µM (inactive)
RXF 393
  GI50: 12.3 µM (inactive)
UACC-257
  GI50: 15.7 µM (inactive)
OVCAR-5
  GI50: 20.6 µM (inactive)
NCI-H522
  GI50: 10.6 µM (inactive)
KM12
  GI50: 18.5 µM (inactive)
MCF7
  GI50: 13.4 µM (inactive)
M14
  GI50: 15.4 µM (inactive)
NCI-H23
  GI50: 16.6 µM (inactive)
T47D
  GI50: 16.7 µM (inactive)
MDA-MB-435
  GI50: 15 µM (inactive)
Hs-578T
  GI50: 21.8 µM (inactive)
HOP-62
  GI50: 17.9 µM (inactive)
LOX IMVI
  GI50: 3.99 µM (inactive)
Malme-3M
  GI50: 11.7 µM (inactive)
COLO 205
  GI50: 17.2 µM (inactive)

## O=C1Cc2c(-c3ccccc3)cc(-c3cccc(Cl)c3)nc2-c2ccccc2N1
SR
  GI50: 37.9 µM (inactive)
SNB-75
  GI50: 1.77 µM (inactive)
K562
  GI50: 3.33 µM (inactive)
EKVX
  GI50: 2.29 µM (inactive)
TK-10
  GI50: 1.49 µM (inactive)
SF-295
  GI50: 3.56 µM (inactive)
HT-29
  GI50: 1.73 µM (inactive)
SK-MEL-5
  GI50: 9.91 µM (inactive)
MDA-N
  GI50: 6.82 µM (inactive)
HCT-116
  GI50: 1.6 µM (inactive)
OVCAR-4
  GI50: 1.5 µM (inactive)
SK-MEL-28
  GI50: 3.9 µM (inactive)
A498
  GI50: 4.82 µM (inactive)
HL-60
  GI50: 38.7 µM (inactive)
MOLT-4
  GI50: 20.1 µM (inactive)
NCI-H460
  GI50: 1.2 µM (inactive)
SF-539
  GI50: 6.34 µM (inactive)
HOP-92
  GI50: 1.34 µM (inactive)
RPMI-8226
  GI50: 15.7 µM (inactive)
NCI/ADR-RES
  GI50: 2.05 µM (inactive)
CAKI-1
  GI50: 1.82 µM (inactive)
UO-31
  GI50: 3.14 µM (inactive)
OVCAR-3
  GI50: 2.1 µM (inactive)
MDA-MB-231
  GI50: 1.15 µM (inactive)
NCI-H226
  GI50: 4.63 µM (inactive)
IGROV-1
  GI50: 1.2 µM (inactive)
A549
  GI50: 1.82 µM (inactive)
SN12C
  GI50: 1.26 µM (inactive)
HCT-15
  GI50: 3.42 µM
UACC-62
  GI50: 3.03 µM (inactive)
SNB-19
  GI50: 1.64 µM (inactive)
SW-620
  GI50: 3.91 µM (inactive)
OVCAR-8
  GI50: 1.61 µM (inactive)
U-251
  GI50: 1.75 µM (inactive)
PC-3
  GI50: 5.97 µM (inactive)
SK-MEL-2
  GI50: 8 µM (inactive)
DU-145
  GI50: 2.61 µM (inactive)
SK-OV-3
  GI50: 1.86 µM (inactive)
CCRF-CEM
  GI50: 12.1 µM (inactive)
BT-549
  GI50: 6.61 µM (inactive)
HCC 2998
  GI50: 2.09 µM (inactive)
SF-268
  GI50: 2.73 µM (inactive)
RXF 393
  GI50: 2.15 µM (inactive)
UACC-257
  GI50: 6.32 µM (inactive)
OVCAR-5
  GI50: 6.19 µM (inactive)
NCI-H522
  GI50: 1.05 µM (active)
KM12
  GI50: 5.02 µM (inactive)
MCF7
  GI50: 2.22 µM (inactive)
M14
  GI50: 8.09 µM (inactive)
NCI-H23
  GI50: 5.24 µM (inactive)
T47D
  GI50: 2.05 µM (inactive)
MDA-MB-435
  GI50: 8.91 µM (inactive)
Hs-578T
  GI50: 2.09 µM (inactive)
HOP-62
  GI50: 1.38 µM (inactive)
LOX IMVI
  GI50: 2.04 µM (inactive)
Malme-3M
  GI50: 3.82 µM (inactive)
COLO 205
  GI50: 6.62 µM (inactive)

Reference: ChEMBL document CHEMBL1201862, “PubChem BioAssay data set” (2004)
